Measured values reported in patent publication US20210106703A1, “RADIOIMMUNOCONJUGATES IN COMBINATION WITH OTHER DRUGS AS TREATMENT AGAINST NHL” (Nordic Nanovector ASA, priority 2017, published 2021).
“Also recorded” adds a separate entry of the source.

B1: lilotomab: murine anti-CD37 IgG1 mAb (antibody, chains of the INN, looked up, V domains shown)
VH: EIQLQQSGPELVKPGASVKVSCKASGYSFTDYNMYWVKQSHGKSLEWIGYIDPYNGDTTYNQKFKGKATLTVDKSSSTAFIHLNSLTSEDSAVYYCARSPYGHYAMDYWGQGTSVTVSS
VL: DIVMTQSHKLLSTSVGDRVSITCKASQDVSTAVDWYQQKPGQSPKLLINWASTRHTGVPDRFTGSGSGTDYTLTISSMQAEDLALYYCRQHYSTPFTFGSGTKLEIK

How the values were obtained:
DOHH2 cells [1] = experiment: Cell cycle analysis (PI, Muse flow cytometer); format: cell-based, human; conditions: DOHH2, 1 μM inhibitor + ^177Lu-lilotomab, versus ^177Lu-lilotomab alone or untreated
Procedure: (§1) Cells were harvested at day 0, 2 h, 18 h, 1 d, 2 d, 3 d, of RIT then fixed in 70% ethanol at −20° C. for 3 hours and stained with Cell Cycle kit (with PI) reagent from Merck Millipore in the dark for 30 min at room temperature before analysis using a Muse® flow cytometer. The percentage of cells in G0/G1, S and G2/M phases was then calculated (mean of three experiments in triplicate).
(§2) At different times after start of incubation, proteins were extracted to measure the CDK1 phosphorylation levels, in parallel, proliferation was determined and at 18 h and 24 h after start of incubation, the percentage of cells in G2/M was assessed (experiments were performed three time except the cell cycle analysis).
(§3) Cells were harvested at 0 h, 2 h, 18 h, 1 d, 2 d, 3 d, and fixed in 70% ethanol at −20° C. for at least 3 h. After staining with the Muse® Cell Cycle Assay Kit (Merck Millipore, Molsheim, France) using propidium iodide in the dark at room temperature for 30 min, cell cycle distribution was analyzed using a Muse® flow cytometer. The percentage of cells in the G0/G1, S and G2/M was calculated (mean of three experiments in triplicate) and the effect of WEE-1 and MYT-1 kinase inhibitors on the cell cycle was assessed.

Rec-1 cells [2] = experiment: Cell cycle analysis (PI, Muse flow cytometer); format: cell-based, human; conditions: Rec-1, 1 μM inhibitor + ^177Lu-lilotomab, versus ^177Lu-lilotomab alone or untreated
Procedure: as §1, §2, §3

Ramos cells [3] = experiment: Cell cycle analysis (PI, Muse flow cytometer); format: cell-based, human; conditions: 1 μM inhibitor + ^177Lu-lilotomab, versus ^177Lu-lilotomab alone or untreated
Procedure: as §1, §2, §3

OCI-Ly8 cells = experiment: Cell cycle analysis (PI, Muse flow cytometer); format: cell-based, human; conditions: OCI-Ly8, 1 μM inhibitor + ^177Lu-lilotomab, versus ^177Lu-lilotomab alone
Procedure: Cells were harvested at 0 […], and fixed in 70% ethanol at -20° C. for at least 3 h. After staining with the Muse® Cell Cycle Assay Kit (Merck Millipore, Molsheim, France) using propidium iodide in the dark at room temperature for 30 min, cell cycle distribution was analyzed using a Muse® flow cytometer. The percentage of cells in the G0/G1, S and G2/M was calculated (mean of three experiments in triplicate) and the effect of WEE-1 and MYT-1 kinase inhibitors on the cell cycle was assessed.

DOHH2 cells [4] = experiment: Proliferation study with Wee-1/Myt-1 inhibitors and ^177Lu-lilotomab; format: cell-based, human; conditions: DOHH2, inhibitor alone 1 μM for 18 h, 6 days after start
Procedure: (§4) Cells were treated for 18 h with 1 μM of the selective Wee-1 kinase inhibitor MK-1775 (Selleckchem, Houston, USA) or of the dual Wee-1/Myt-1 inhibitor PD-166285 (EMD Merck Millipore/Calbiochem, Molsheim, France) alone or in combination with 6 MBq/mL, 2 MBq/mL and 0.5 MB/mL of ^177Lu-lilotomab for Ramos, Rec-1 and DOHH2 cells respectively. At different times after start of incubation, proteins were extracted to measure the CDK1 phosphorylation levels, in parallel, proliferation was determined and at 18 h and 24 h after start of incubation, the percentage of cells in G2/M was assessed (experiments were performed three time except the cell cycle analysis).
(§5) The activity used for the treatment with ^177Lu-lilotomab was chosen to decrease the proliferation to about 50% for the three cell lines compared with non-treated cells.
(§6) Inhibition of G2/M cell cycle arrest radiosensitises radioresistant Ramos model. The Bliss independence mathematical model was next used to investigate the role of MK-1775 or PD-166285 on the response to ^177Lu-lilotomab. A theoretical therapeutic efficacy was calculated for the two combinations (MK-1775 or PD-166285) in the three cell lines. And the comparison between the experimental and the theoretical curves was done.
(§7) Theoretical efficacyRIT+inhib=EfficacyRIT+Efficacyinhib−(EfficacyRIT×Efficacyinhib)

Ramos cells [5] = experiment: as above; format: cell-based, human; conditions: inhibitor 1 μM + ^177Lu-lilotomab 6 MBq/mL (RIT) for 18 h, 6 days after start
Procedure: as §4, §5, §6, §7

DOHH2 cells [6] = experiment: Apoptosis induction (Annexin V/7-AAD, Muse flow cytometer); format: cell-based, human; conditions: DOHH2, 18 h exposure to unlabelled mAb, plateau at 18 h
Procedure: (§8) Cells were harvested at 0, 2 h, 18 h, 1 d, 2 d, 3 d of RIT. At each time point, apoptosis was detected with […] from Merck Millipore (Annexin V Kit with 7-AAD) in the dark for 30 min at room temperature before analysis using Muse® flow cytometer

Rec-1 cells [7] = experiment: as above; format: cell-based, human; conditions: Rec-1, 18 h exposure to unlabelled mAb, at peak time
Procedure: as §8

Ramos cells [8] = experiment: as above; format: cell-based, human; conditions: 18 h exposure to unlabelled mAb, at peak time
Procedure: as §8

CD37 receptor = molecular target: T1, CD37 receptor (Homo sapiens, UniProt P11049); conditions: cited from earlier work
T1 sequence (P11049 1-281): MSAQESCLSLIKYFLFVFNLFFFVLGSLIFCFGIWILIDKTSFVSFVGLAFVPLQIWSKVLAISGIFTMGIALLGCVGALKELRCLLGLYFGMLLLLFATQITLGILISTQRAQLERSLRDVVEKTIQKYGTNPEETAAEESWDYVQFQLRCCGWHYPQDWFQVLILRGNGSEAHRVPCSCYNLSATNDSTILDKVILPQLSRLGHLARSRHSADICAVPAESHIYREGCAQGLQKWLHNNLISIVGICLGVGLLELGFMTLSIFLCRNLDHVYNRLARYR

OCI-Ly8 tumor xenografts = experiment: Treatment of mice with tumor xenografts; conditions: single agent

Molecule | Proportion of cells in G2/M, inhibitor combined with ^177Lu-lilotomab (DOHH2 cells [1]) | Proportion of cells in G2/M, inhibitor combined with ^177Lu-lilotomab (Rec-1 cells [2]) | Proportion of cells in G2/M, inhibitor combined with ^177Lu-lilotomab (Ramos cells [3]) | Proportion of cells in G2/M, inhibitor combined with ^177Lu-lilotomab (OCI-Ly8 cells) | Proliferation (treated/untreated cells) (DOHH2 cells [4]) [%] | Proliferation (treated/untreated cells) (Ramos cells [5]) [%] | Apoptosis level (DOHH2 cells [6]) | Apoptosis level (Rec-1 cells [7]) | Apoptosis level (Ramos cells [8]) | Equilibrium dissociation constant (CD37 receptor) | Therapeutic efficacy compared with control (OCI-Ly8 tumor xenografts)
CCN(CC)CCOc1ccc(Nc2ncc3cc(-c4c(Cl)cccc4Cl)c(=O)n(C)c3n2)cc1 [PD-166285] | higher than that induced by the combination with the MK-1775; also recorded: reduction of the fraction of G2/M cells | reduction of the fraction of G2/M cells | reduction of the fraction of G2/M cells | reduction of the fraction of G2/M cells | 18 | ~10 |  |  |  |  | 
B1 |  |  |  |  |  |  | No apoptosis was induced | No apoptosis was induced | No apoptosis was induced | nanomolar | no therapeutic efficacy
